We go through five compounds from the NIST ThermoML archive (doi:10.1016/j.fluid.2014.06.024).

± gives the expanded uncertainty stated by the source.

As usually defined, the speed of sound is the propagation velocity of pressure waves in the medium. The term mass density denotes mass per unit of volume.

Data set [1] is described as follows: molar heat capacity at constant pressure. The following applies: 101.33 kPa, Liquid, Small sample (50 mg) DSC.
For data set [2] the following is noted: 101.33 kPa, Liquid; for speed of sound: Sing-around technique in a fixed-path interferometer; for mass density: Vibrating tube method.

Regarding `Cc1ccccc1C` [1,2-dimethylbenzene], the “molar heat capacity at constant pressure” value in data set [1] (298.15 K) was 187.55 ± 2.9 J/K/mol; in data set [1] (303.15 K), 189.11 ± 2.9 J/K/mol; in data set [1] (308.15 K), 190.62 ± 3 J/K/mol. For the same compound, the values for the speed of sound in data set [2] (298.15 K), in data set [2] (303.15 K) and in data set [2] (308.15 K) were 1346.2 ± 0.8 m/s, 1326.2 ± 0.8 m/s and 1306.1 ± 0.8 m/s, respectively. The mass density came out at 875.91 ± 1 kg/m3 in data set [2] (298.15 K), 871.7 ± 1 kg/m3 in data set [2] (303.15 K) and 867.48 ± 1 kg/m3 in data set [2] (308.15 K).
Regarding `Cc1ccccc1Cl` [2-chlorotoluene], the “molar heat capacity at constant pressure” value was 178.21 ± 2.8 J/K/mol in data set [1] (298.15 K), 180.01 ± 2.8 J/K/mol in data set [1] (303.15 K) and 181.71 ± 2.8 J/K/mol in data set [1] (308.15 K). Besides, the speed of sound was 1298.7 ± 1 m/s in data set [2] (298.15 K), 1280.7 ± 1 m/s in data set [2] (303.15 K) and 1262.7 ± 1 m/s in data set [2] (308.15 K). The figures for the mass density in data set [2] (298.15 K), in data set [2] (303.15 K) and in data set [2] (308.15 K) were 1077.3 ± 1 kg/m3, 1072.5 ± 1 kg/m3 and 1067.6 ± 1 kg/m3, respectively.
As to `c1ccccc1` [benzene], the entries for the “molar heat capacity at constant pressure” value in data set [1] (298.15 K), in data set [1] (303.15 K) and in data set [1] (308.15 K) were 135.18 ± 2.1 J/K/mol, 136.4 ± 2.1 J/K/mol and 137.61 ± 2.1 J/K/mol, respectively. For the same compound, the speed of sound was 1299.4 ± 0.8 m/s in data set [2] (298.15 K), 1276.1 ± 0.82 m/s in data set [2] (303.15 K) and 1252.9 ± 0.82 m/s in data set [2] (308.15 K). The mass density in data set [2] (298.15 K) is on record as 873.54 ± 1 kg/m3; in data set [2] (303.15 K), 868.2 ± 1 kg/m3; in data set [2] (308.15 K) it was 862.84 ± 1 kg/m3.
As to `C1CCOCC1` [tetrahydropyran], the entries for the “molar heat capacity at constant pressure” value in data set [1] (298.15 K), in data set [1] (303.15 K) and in data set [1] (308.15 K) were 149.62 ± 2.3 J/K/mol, 151.22 ± 2.3 J/K/mol and 153.08 ± 2.4 J/K/mol, respectively. The speed of sound is on record as 1269.8 ± 0.9 m/s in data set [2] (298.15 K), 1246.8 ± 0.9 m/s in data set [2] (303.15 K) and 1224.4 ± 0.9 m/s in data set [2] (308.15 K). For the same compound, the mass density in data set [2] (298.15 K) was 879.13 ± 1 kg/m3; in data set [2] (303.15 K), 873.99 ± 1 kg/m3; in data set [2] (308.15 K) it was 868.83 ± 1 kg/m3.
In the case of `Cc1ccccc1` [toluene], the results for the “molar heat capacity at constant pressure” value in data set [1] (298.15 K), in data set [1] (303.15 K) and in data set [1] (308.15 K) were 157.18 ± 2.4 J/K/mol, 158.61 ± 2.5 J/K/mol and 160.09 ± 2.5 J/K/mol, respectively. Besides, the speed of sound turned out to be 1304.6 ± 1 m/s in data set [2] (298.15 K), 1283.2 ± 1 m/s in data set [2] (303.15 K) and 1261.8 ± 1 m/s in data set [2] (308.15 K). In addition, the mass density in data set [2] (298.15 K) was 862.18 ± 1 kg/m3; in data set [2] (303.15 K), 857.51 ± 1 kg/m3; in data set [2] (308.15 K), 852.82 ± 1 kg/m3.
